Patent US8618286B2, “Benzoxazines, benzothiazines, and related compounds having NOS inhibitory activity” (NeurAxon, Inc., priority 2008, dated 2013)
pIC50: −log10 of the molar value.

Tests used:
[1] = target: Nitric oxide synthase (neuronal, human recombinant) nNOS (Homo sapiens (Human), UniProt P29475); test: Human nNOS enzyme assay ([3H]-L-arginine to L-citrulline conversion); assay type: biochemical
Protocol: nNOS (Human), eNOS (Human) and iNOS (Human) Enzyme Assay
Primary stock solutions of test compounds at a concentration of 6 mM were prepared from the 2 to 5 mg powder. The primary stock solutions of each test compound were prepared freshly in distilled water on the day of study to obtain a final concentration of 6 mM. For determination of IC50 values, 12 test compound concentrations were prepared as 3-fold serial dilutions. Concentration range of test compound utilized for nNOS were 0.001 to 300 μM and for eNOS were 0.003 to 1000 μM. The vehicle of the test compound or inhibitor was used as blank control. For non-specific activity, 100 μM L-NMMA was used. Runs using the IC50 concentration of L-NAME were done in parallel as controls.
All incubations are performed in duplicate
The reaction mixture was prepared on ice by adding the following components with a micropipette to a polypropylene microcentrifuge tube: • 10 μL of test compound, inhibitor or control (vehicle or L-NMMA) solution; • 25 μL of Reaction Buffer {25 mM Tris-HCl, 0.6 μM BH4, 0.2 μM FMN, 0.2 μM FAD}; • 5 μL of 10 mM NADPH solution {1 mM} (freshly prepared in 10 mM Tris-HCl (pH 7.4); • 5 μL of 6 mM CaCl2 {600 W}; • 5 μL of 1 mM Calmodulin {100 W}; and • 5 μL of 0.02 μg/μL nNOS or 0.12 μg/μL eNOS.
The above reaction mixture was pre-incubated at room temperature for 15 mins.
The reaction was started by the addition of the substrate (in 5 μL containing 1 μCi of [^3H]-L-Arginine+2.5 μM of unlabeled L-Arginine) to the reaction mixture. Total reaction volume is 60 μL.
The reaction was mixed using a vortex mixer and incubate the above reaction mixture at 37° C. in an incubator for 30 minutes.
To stop the reaction, 400 μL of ice-cold Stop Buffer was added at the end of the incubation period.
The reaction was then mixed using a vortex mixer, and the reaction samples were transferred to spin cups, which were centrifuged using a microcentrifuge, at 13,000 rpm for 30 sec. at room temperature.
The spin cups were removed from the holder, 450 μL of eluate (containing the unbound L-citrulline) were transferred to scintillation vials. 3 mL of scintillation fluid were added and the radioactivity was quantified in a liquid scintillation counter.
Data was analyzed using a Sigmoidal dose-response (variable slope) curve to determine the IC50 value of the test compound. Y=Bottom+(Top−Bottom)/(1+10^((Log IC50−X)*Hill Slope))

[2] = test system: L5/L6 spinal nerve ligation model of neuropathic pain (Chung model); test: Chung L5/L6 spinal nerve ligation model of neuropathic pain; assay type: in vivo, rat; conditions: rats, L5/L6 SNL
Protocol: (§1) The L5/L6 spinal nerve was surgically ligated and animals allowed to recover for a period of 7-10 days. During this period animals develop neuropathic pain. The reduction of paw withdrawal latency after an infrared thermal stimulus (post-SNL) was measured following the induction period for comparison with pre-surgery baseline levels (BL). Following drug administration, thermal hyperalgesia was measured at various time points.
as §1, with “tactile thresholds” for “paw withdrawal latency after an infrared thermal stimulus”, “tactile allodynia” for “thermal hyperalgesia”, “points with calibrated von-Frey filaments.” for “points.”
The experimental designs for the Chung Spinal Nerve Ligation SNL Model assay for neuropathic pain are depicted in FIGS. 1 and 2. Nerve ligation injury was performed according to the method described by Kim and Chung (Kim and Chung, Pain 50:355-363, 1992). This technique produces signs of neuropathic dysesthesias, including tactile allodynia, thermal hyperalgesia, and guarding of the affected paw. Rats were anesthetized with halothane, and the vertebrae over the L4 to S2 region were exposed. […]

[3] = test system: dural inflammation model of migraine; test: Dural inflammation rat model of migraine; assay type: in vivo; conditions: rats, 3 mg/kg p.o., about 15 min pre-IS, measured up to 6 hours post IS
Protocol: These features mimic the characteristic often seen in migraineurs during a headache, especially when treatment is delayed, and the development of central sensitization has occurred (Burstein et al., Ann. Neurol. 47:614-624, 2000; Burstein et al., Brain, 123:1703-1709, 2000). Compound (8) was tested in a dural inflammation model of migraine according to previously described procedures (WO 2007/120830 or as described in US-2008-0031822-A1). Baseline paw withdrawal thresholds were recorded approximately 30 min before the IS administration by application of calibrated von Frey filaments to the hindpaws to measure tactile allodynia. Approximately 15 minutes pre-IS administration, the test compound in water was administered by oral gavage (1 mL/kg) at a dose of 3 mg/kg per os (p.o.). Measurements of tactile allodynia were recorded at 1 hour intervals up to 6 hours post IS administration.

[4] = test system: Carrageenan model of inflammatory pain; test: Carrageenan model of inflammatory pain; assay type: in vivo, rat; conditions: rats
Protocol: Inflammation was induced by injecting 0.1 mL of a 3% carrageenan suspension s.c. into the supplanter aspect of a hindpaw of lightly anesthetized rats. Typically, pronounced inflammation and edema were obvious within three hours of the injection. The carrageenan model is a model of inflammatory pain with two components: the first occurring immediately after injection provides information on the acute nociceptive response to a painful stimulus (in this case, the chemical carrageenan). There is also a second, neurogenic component that develops several hours later and reflects the type of neuronal activity due to the hyperalgesic and allodynic components as found in neuropathic pain. Considerable evidence has shown that NO and its enzymes are involved in the central mechanisms of inflammatory hyperalgesia at the spinal cord level and that peripheral inflammation can upregulate nNOS expression and induce iNOS expression in the spinal cord (Guhring et al., J. Neurosci. 20:6714-6720, 2000; Wu et al., Exp. Brain Res. 118:457-465, 1998; and Wu et al., Pain 94:47-58, 2001).

CNCCN1CCSc2cc(NC(=N)c3cccs3)ccc21 [Compound 8, N-(4-(2-(methylamino)ethyl)-3,4-dihydro-2H-benzo[b][1,4]thiazin-7-yl)thiophene-2-carboximidamide]
Selectivity eNOS/nNOS ([1]; ratio of human eNOS IC50 to human nNOS IC50): 531 | pIC50 ([1]; recombinant human nNOS): 7.22 | reversal of tactile allodynia ([2]; i.p. 30 mg/kg, von Frey filaments): reversal of tactile allodynia | reversal of thermal hyperalgesia ([2]; i.p., text: e.g. 3 mg/kg, FIG. 3 legend: 30 mg/kg): clear effect | antiallodynic effect (tactile allodynia, hindpaw) [3]: antiallodynic effect | reversal of mechanical allodynia ([4]; ipsilateral paw, 60, 100, or 200 mg/kg p.o. (FIG. 6)): reversal of mechanical allodynia | reversal of thermal hyperalgesia (late phase), paw withdrawal latency ([4]; ipsilateral paw, text: i.p. dosing, FIG. 7 legend: 60, 100, or 200 mg/kg p.o.): reversal of thermal hyperalgesia
